In EP4656640A1, “IRAK4 DEGRADER AND USE THEREOF” (Shanghai Qilu Pharmaceutical Research and Development …, priority 2023, dated 2024):
Read-outs that look alike come from different tables or passages of the source.

What was measured:
[1] = test system: TNFα secretion; experiment: Inhibition of induced TNFα secretion in human PBMCs (CBA); type: cell-based; details: PBMC
Method: (§1) The effect of PROTAC small molecules on inflammatory factors in PBMCs downstream of IRAK4 induced by TLR and IL-1 was detected based on the CBA (cytometric bead array) method.
(§2) Step 2: The density of PBMCs was adjusted to 1 E6/mL, and 150 µL of PBMCs in 1640 complete medium were seeded into a 96-well plate, followed by incubation at 37°C for 1 hour.
(§3) Step 3: 50 µL of serially diluted small molecule (working concentration: 10000 nM, 1:3 dilution) drugs were inoculated into the plate in a 37°C incubator for 8 hours.
(§4) Step 4: 10 µL of stimulants were added respectively, with final concentrations of 100 ng/mL for LPS, 1 µg/mL for R848, and 100 ng/mL for IL-1β.
(§5) Step 5: CBA assay. The concentrations of IL-6 and TNF-α in the cell culture supernatant were determined using Hu IL-6 CBA Flex Set A7 and Hu TNF- CBA Flex Set D9.
(§6) Step 6: Standard samples were prepared: 2500 pg/mL, 1250 pg/mL,...0. A 1:2 serial dilution was performed to obtain 10 concentrations.
(§7) Step 7: The mixed capture beads were resuspended in capture bead diluent (1:50), and cell culture supernatant (50 µL) was added, followed by incubation at room temperature for 10 minutes.
(§8) Step 8: The detection reagent prepared with detection diluent was added, and the mixture was incubated in the dark at room temperature for 3 hours. At the end of incubation, the samples were washed once with wash buffer and resuspended for detection.
(§9) The concentrations of IL-6 and TNFα were calculated using the standard curve method. Data presentation and IC50 calculation were performed using Prism 8.0.2.

[2] = test system: IL-6 secretion; experiment: Inhibition of induced IL-6 secretion in human PBMCs (CBA); type: cell-based; details: PBMC
Method: as §1, §2, §3, §4, §5, §6, §7, §8, §9

[3] = Mouse pharmacokinetics, oral (Experiment 1); type: in vivo, C57BL/6 mice; details: mice, PO 100 mg/kg, fasted overnight, plasma
Method: C57BL/6 mice were used as test animals to study the pharmacokinetic behavior of the compounds of the present disclosure in mouse plasma after oral administration at a dose of 100 mg/kg.
C57BL/6, male, transferred from the animal repository of the laboratory institution (999M-018).
Three male C57BL/6 mice were fasted overnight (10-14 hours) with free access to water one day before administration. The mice were fed 4 hours after administration. The dose for PO administration was 100 mg/kg, with an administration volume of 20 mL/kg.
After administration, blood samples (0.03 mL) were collected from the mice via venipuncture at 0.083, 0.25, 0.5, 1, 2, 4, 8, and 24 hours. The samples were placed in EDTA-K2 tubes and centrifuged at 6800 rpm for 5 minutes at 2-8°C. The plasma was separated and stored at -80°C.
• 1) 10 µL of plasma sample was added to 200 µL of methanol for precipitation. After mixing, the mixture was centrifuged at 18000 g for 10 minutes. • 2) The processed supernatant solution was taken for LC/MS/MS analysis to determine the concentration of the test compound.
• Liquid phase conditions: Shimadzu LC-30AD pump • Mass spectrometry conditions: AB Sciex API 5500 mass spectrometer • Chromatographic column: Phenomenex Kinetex 2.6 µm C18 50 3.0 mm • Mobile phase: Solution A was 0.1% formic acid in water, and solution B was 0.1% formic acid in acetonitrile • Flow rate: 0.6 mL/min • Elution time: Gradient elution for 0-1.6 minutes.
The main pharmacokinetic parameters were calculated using WinNonlin 8.0.

[4] = Dog pharmacokinetics, oral gavage (Experiment 3); type: in vivo; details: Beagle dogs, oral gavage 2.5 mg/kg, plasma
Method: Healthy Beagle dogs, male, weighing about 8-10 kg, 3 animals per group.
The animals were not fasted and had free access to water.
Venous blood (0.5-0.8 mL) was collected at 15 minutes, 30 minutes, 1 hour, 2 hours, 4 hours, 8 hours, and 24 hours after oral gavage administration, placed in K2EDTA tubes, and centrifuged at 4°C to separate plasma. The concentration of the compound in plasma was determined by liquid chromatography-tandem mass spectrometry.
The main pharmacokinetic parameters were calculated using WinNonlin. […] Table 8. Pharmacokinetic parameters of some compounds of the present disclosure administered orally to dogs

[5] = mice, 8 hours after last administration
Method: Experimental animals: SPF-grade male C57BL/6J mice aged 6-8 weeks.
Preparation of compound: 10% DMSO + 50% PEG400 + 40% sterile water for injection. The compound was dissolved in DMSO, followed by the addition of PEG400 and sterile water for injection, and the solution was adjusted to clarity with 6N hydrochloric acid.
Compound administration and IL-33 inflammatory induction: The mice were randomly grouped according to body weight and orally administered with the compound at final doses of 15 mg/kg, 50 mg/kg, and 150 mg/kg, twice daily. At 4 hours after the last administration of the compound, the mice were intraperitoneally injected with 1 µg/100 µL PBS of IL-33 for inflammatory induction.
Termination, sample collection, and data: Plasma, peritoneal lavage fluid, and spleen were collected for subsequent sample index detection.
The experiment was terminated 8 hours after the last administration. The mice were anesthetized, and cardiac blood was collected. The blood samples were anticoagulated with EDTA-K2, centrifuged at 3500 rpm for 15 minutes, and the upper plasma was collected.

[6] = target: hERG potassium channel (Homo sapiens, UniProt Q12809); experiment: Inhibition of hERG potassium channel, whole-cell manual patch clamp in CHO-hERG cells; details: @ 1 µM test compound
Method: The effects of compounds on hERG potassium channel (human Ether-a-go-go Related Gene potassium channel) currents were tested using the whole-cell manual voltage-clamp electrophysiological method.
CHO cells stably expressing hERG were cultured in cell culture dishes with a diameter of 35 mm and incubated at 37°C in a 5% CO2 incubator. The cells were passaged at a ratio of 1:5 every 48 hours. The culture medium was formulated as follows: 90% F12 (Invitrogen), 10% fetal bovine serum (Gibco), 100 g/mL G418 (Invitrogen), and 100 g/mL Hygromycin B (Invitrogen). On the day of the experiment, the cell culture medium was aspirated, and the cells were rinsed once with extracellular solution. […] The digestion solution was aspirated, and the cells were resuspended in extracellular solution and then transferred to experimental dishes for electrophysiological recording for later use.
On the day of testing, the compounds were prepared as 10 mM stock solutions in DMSO, then diluted to 1 mM with DMSO, and further diluted 1000-fold with extracellular solution to obtain the desired final test concentration.
hERG potassium channel currents were recorded at room temperature using the whole-cell patch-clamp technique in CHO cells stably expressing the hERG channel. The glass microelectrode was prepared by pulling the glass electrode blank (BF150-86-10, Sutter) with a puller, and the tip resistance after filling with the internal electrode solution was about 2-5 MΩ. The glass microelectrode was inserted into the amplifier probe and then connected to the patch-clamp amplifier. The clamping voltage and data recording were controlled and recorded by pClamp software via a computer, with a sampling frequency of 10 kHz and a filtering frequency of 2 kHz. After obtaining the whole-cell recording, cells were clamped at -100 mV. The hERG potassium current (IhERG) was evoked by applying a 2 s depolarizing voltage step from -100 mV to +20 mV, followed by repolarization to -50 mV for 1 s before returning to -100 mV. […]
Data were analyzed and processed using pClamp, GraphPad Prism 8 and Excel software. […]

[7] = target: T1, IRAK4 (Homo sapiens, UniProt Q9NWZ3); experiment: Degradation of IRAK4 in monocytes of human PBMCs (flow cytometry); type: cell-based; parameters: endogenous in cells; details: human PBMC monocytes, 24 hours incubation
T1 sequence (Q9NWZ3 1-460): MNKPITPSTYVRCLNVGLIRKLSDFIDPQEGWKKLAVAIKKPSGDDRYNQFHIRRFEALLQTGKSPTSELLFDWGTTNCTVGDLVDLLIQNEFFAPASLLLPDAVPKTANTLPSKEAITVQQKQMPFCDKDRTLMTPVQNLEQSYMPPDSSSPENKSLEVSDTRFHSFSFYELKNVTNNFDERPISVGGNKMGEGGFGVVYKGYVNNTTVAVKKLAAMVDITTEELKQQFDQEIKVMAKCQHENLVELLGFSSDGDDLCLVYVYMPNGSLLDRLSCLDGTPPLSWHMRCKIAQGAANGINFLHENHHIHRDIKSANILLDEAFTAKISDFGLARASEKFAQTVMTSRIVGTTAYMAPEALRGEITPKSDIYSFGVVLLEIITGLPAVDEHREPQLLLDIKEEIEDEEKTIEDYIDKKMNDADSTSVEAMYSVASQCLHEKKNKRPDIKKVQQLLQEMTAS
Method: The degradation level of IRAK4 in monocytes of human peripheral blood mononuclear cells (hPBMCs) was detected by flow cytometry.
On day 1, the cells were seeded at a density of 2 × 10^5 cells per well in 100 µL in a 96-well plate.
(§10) The compounds were dissolved in DMSO to a final concentration of 10 mM, and then diluted with culture medium at a 1:5 concentration gradient to prepare 10 concentrations. The diluted solutions were added to the cells to obtain a maximum final concentration of 2 µM. Wells containing cells treated with 0.1% DMSO served as the positive control
The cells were incubated at 37°C in a 5% CO2 incubator for 24 hours.
(§11) The cells were stained for viability discrimination using the LIVE/DEAD™ Fixable Blue Dead Cell Stain Kit, and surface staining of monocytes was performed with PE Mouse Anti-Human CD14, followed by incubation at 4°C for 30 minutes.
Fix buffer I, equal in volume to the cultured cells, was added, and the cells were fixed at 37°C for 10 minutes.
150 µL of Perm III reagent was added, and the cells were incubated at 4°C for 30 minutes to permeabilize the membranes.
(§12) Flow cytometry analysis was performed using a flow cytometer.
The flow cytometry data were analyzed using Flowjo software. Data presentation and DC50 calculation were performed using Prism 8.0.2 (GraphPad).

[8] = target: T1, IRAK4; experiment: Degradation of IRAK4 in SU-DHL-2 cells (flow cytometry); type: cell-based; parameters: The degradation level of IRAK4 protein in SU-DHL-2 cell line by the compounds was detected by flow cytometry; endogenous in cells; host or cells: SU-DHL-2; OCI-LY3; details: SU-DHL-2 cells, 24 hours incubation; read-out: SU-DHL-2 DC50
Method: The degradation level of IRAK4 protein in SU-DHL-2 cell line by the compounds was detected by flow cytometry.
as §10, with “Step 2: On day 1, the cells were seeded at a density of 2 × 10^5 cells per well in 100 µL in a 96-well plate. The compounds” for “The compounds”, “[…] The cells were incubated at 37°C in a 5% CO2 incubator for 24 hours.” for “positive control”
as §11, with “Step 3: After centrifugation, the cells were washed with FACS buffer. The” for “The”
Step 4: After centrifugation, the cells were washed with FACS buffer. Fix buffer I, equal in volume to the cultured cells, was added, and the cells were fixed at 37°C for 10 minutes.
Step 5: After centrifugation, the cells were washed with FACS buffer. 150 µL of Perm III reagent was added, and the cells were incubated at 4°C for 30 minutes to permeabilize the membranes. After centrifugation, the cells were washed with FACS buffer.
as §12
The flow cytometry data were analyzed using Flowjo software. Data presentation and DC50 (half-maximal degradation concentration) calculation were performed using Prism 8.0.2 (GraphPad).

[9] = IL-1β 100 ng/mL, read-out: IC50, TNFα secretion induced by IL-1β
[10] = LPS 100 ng/mL, read-out: IC50, TNFα secretion induced by LPS
[11] = R848 1 µg/mL, read-out: IC50, TNFα secretion induced by R848
[12] = IL-1β 100 ng/mL, read-out: IC50 of compounds against induced secretion, IL-6, IL-1β
[13] = LPS 100 ng/mL, read-out: IC50 of compounds against induced secretion, IL-6, LPS
[14] = R848 1 µg/mL, read-out: IC50 of compounds against induced secretion, IL-6, R848

hERG potassium channel, sequence (Q12809 whole entry): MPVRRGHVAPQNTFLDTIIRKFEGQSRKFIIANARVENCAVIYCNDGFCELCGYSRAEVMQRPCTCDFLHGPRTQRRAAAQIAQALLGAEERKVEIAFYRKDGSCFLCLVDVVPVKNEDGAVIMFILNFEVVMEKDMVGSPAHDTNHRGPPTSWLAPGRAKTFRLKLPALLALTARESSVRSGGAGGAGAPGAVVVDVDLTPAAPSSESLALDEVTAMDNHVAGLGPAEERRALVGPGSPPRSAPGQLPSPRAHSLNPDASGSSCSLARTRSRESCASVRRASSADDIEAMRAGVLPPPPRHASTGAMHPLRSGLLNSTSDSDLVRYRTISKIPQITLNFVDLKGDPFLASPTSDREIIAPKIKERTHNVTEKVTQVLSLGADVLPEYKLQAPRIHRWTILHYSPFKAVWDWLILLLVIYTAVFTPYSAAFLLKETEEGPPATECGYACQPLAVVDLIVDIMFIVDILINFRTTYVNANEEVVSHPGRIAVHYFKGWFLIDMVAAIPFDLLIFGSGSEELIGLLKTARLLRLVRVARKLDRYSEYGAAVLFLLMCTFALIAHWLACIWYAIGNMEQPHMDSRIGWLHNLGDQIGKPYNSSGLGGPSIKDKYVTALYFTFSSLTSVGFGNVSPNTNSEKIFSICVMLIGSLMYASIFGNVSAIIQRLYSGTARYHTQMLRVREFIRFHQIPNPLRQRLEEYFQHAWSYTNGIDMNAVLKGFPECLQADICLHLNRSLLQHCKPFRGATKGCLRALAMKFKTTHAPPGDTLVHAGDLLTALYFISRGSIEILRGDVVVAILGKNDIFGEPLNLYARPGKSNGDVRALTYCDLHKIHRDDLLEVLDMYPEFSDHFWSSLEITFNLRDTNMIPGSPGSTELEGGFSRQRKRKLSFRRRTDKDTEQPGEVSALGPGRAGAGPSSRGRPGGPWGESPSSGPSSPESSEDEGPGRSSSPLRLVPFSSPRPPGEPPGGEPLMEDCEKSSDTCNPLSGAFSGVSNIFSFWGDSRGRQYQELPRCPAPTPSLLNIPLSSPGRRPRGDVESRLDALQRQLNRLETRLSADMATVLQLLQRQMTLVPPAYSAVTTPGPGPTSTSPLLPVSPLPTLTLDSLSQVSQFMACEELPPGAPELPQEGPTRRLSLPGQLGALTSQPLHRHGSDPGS

Structure (SMILES): Cn1c(=O)n(C2CCC(=O)NC2=O)c2cccc(C#CCOC3CCN(C(=O)N4CCC5(CC4)CC(n4cc(NC(=O)c6cnn7ccc(N8C[C@H]9C[C@@H]8CO9)nc67)c(C(F)F)n4)C5)CC3)c21 (stereo partly drawn) [Example 13]
- IC50 [1, 9]: 0.013 µM
- IC50 [1, 10]: 0.0223 µM
- IC50 [1, 11]: 0.02 µM
- IC50 [2, 12]: 0.0132 µM
- IC50 [2, 13]: 0.0197 µM
- IC50 [2, 14]: 0.01 µM
- AUC(0-inf) [3]: 19200 ng·h/mL
- AUC(0-t) at 24 h [3]: 16300 ng·h/mL
- Cmax [3]: 2160 ng/mL
- MRT inf [3]: 10.9 h
- Tmax [3]: 1 h
- half-life [3]: 7.6 h
- AUC(0-t) at 24 h [4]: 521 ng·h/mL
- Cmax [4]: 102 ng/mL
- MRT inf [4]: 4.5 h
- half-life [4]: 2.1 h

Structure (SMILES): Cn1c(=O)n(C2CCC(=O)NC2=O)c2cccc(C#CCO[C@H]3CC[C@H](CN4CCC5(CC4)CC(n4cc(NC(=O)c6cnn7ccc(N8C[C@H]9C[C@@H]8CO9)nc67)c(C(F)F)n4)C5)CC3)c21 (stereo partly drawn) [Example 31]
- IC50 [1, 9]: 0.0021 µM
- IC50 [1, 10]: 0.0077 µM
- IC50 [1, 11]: 0.0082 µM
- IC50 [2, 12]: 0.0093 µM
- IC50 [2, 13]: 0.0046 µM
- IC50 [2, 14]: 0.0009 µM
- AUC(0-inf) [3]: 5460 ng·h/mL
- AUC(0-t) at 24 h [3]: 4890 ng·h/mL
- Cmax [3]: 364 ng/mL
- MRT inf [3]: 10.4 h
- Tmax [3]: 3.3 h
- half-life [3]: 7.3 h
- AUC(0-t) at 24 h [4]: 198 ng·h/mL
- Cmax [4]: 15 ng/mL
- MRT inf [4]: 12 h
- half-life [4]: 8 h

Structure (SMILES): Cn1c(=O)n(C2CCC(=O)NC2=O)c2cccc(C#CCOC3CCN(C[C@H]4CC[C@H](n5cc(NC(=O)c6cnn7ccc(N8C[C@H]9C[C@@H]8CO9)nc67)c(C(F)F)n5)CC4)CC3)c21 (stereo partly drawn) [KT-474, reference compound]
- IC50 [1, 9]: 0.013 µM
- IC50 [1, 10]: 0.031 µM
- IC50 [1, 11]: 0.052 µM
- IC50 [2, 12]: 0.018 µM
- IC50 [2, 13]: 0.041 µM
- IC50 [2, 14]: 0.014 µM
- AUC(0-t) at 24 h [4]: 380 ng·h/mL
- Cmax [4]: 31 ng/mL
- MRT inf [4]: 10.3 h
- half-life [4]: 6.7 h
- C8hr Plasma ([5]; PO 15 mpk twice daily): 100 ng/mL
- C8hr Spleen ([5]; PO 15 mpk twice daily): 896 ng/mL
- C8hr Plasma ([5]; PO 50 mpk twice daily): 262 ng/mL
- C8hr Spleen ([5]; PO 50 mpk twice daily): 1740 ng/mL
- C8hr Plasma ([5]; PO 150 mpk twice daily): 578 ng/mL
- C8hr Spleen ([5]; PO 150 mpk twice daily): 7262 ng/mL
- hERG (inhibition%) [6]: 47% @ 1 µM

Structure (SMILES): Cn1c(=O)n(C2CCC(=O)NC2=O)c2cccc(C#CC(C)(C)N3CCC(C(=O)N4CCC5(CC4)CC(n4cc(NC(=O)c6cnn7ccc(N8C[C@H]9C[C@@H]8CO9)nc67)c(C(F)F)n4)C5)CC3)c21 (stereo partly drawn) [Example 56]
- DC50 [7]: 0.0011 µM
- DC50 [8]: 0.005 µM
